Assay results published in PMC8596765 (Clinical Pharmacology in Drug Development, 2021).
Entries after “also recorded” stand apart in the source; their conditions may differ. Read-outs that look alike come from different tables or passages of the source.

Legend:
HMG‐CoA reductase = conditions: cited from earlier work
Safety monitoring = type: in vivo, human (healthy subjects); conditions: for Tolerability: doses administered alone or in combination, healthy subjects
[1] = oral contraceptives, CYP3A substrates; cited from earlier work
CYP3A = conditions: upadacitinib 30 mg once daily, healthy subjects; cited from earlier work
[2] = type: in vivo, human (healthy subjects)
[3] = cited from earlier work
[4] = type: in vivo, human (healthy subjects); conditions: for CL/F: N = 12, mean ± SD
[5] = type: in vivo, human (healthy subjects); conditions: for CL/F / Cmax: N = 24, mean ± SD
OATP1B = experiment: In vivo transporter inhibition by upadacitinib inferred from statin exposures; set-up: species or system human (healthy subjects); conditions: upadacitinib 30 mg once daily; no increase in rosuvastatin or atorvastatin exposures
BCRP [6] = molecular target: T1, BCRP (Homo sapiens, UniProt Q9UNQ0); experiment: as above; set-up: species or system human (healthy subjects); conditions: upadacitinib 30 mg once daily; no increase in rosuvastatin or atorvastatin exposures
T1 sequence (Q9UNQ0 1-655): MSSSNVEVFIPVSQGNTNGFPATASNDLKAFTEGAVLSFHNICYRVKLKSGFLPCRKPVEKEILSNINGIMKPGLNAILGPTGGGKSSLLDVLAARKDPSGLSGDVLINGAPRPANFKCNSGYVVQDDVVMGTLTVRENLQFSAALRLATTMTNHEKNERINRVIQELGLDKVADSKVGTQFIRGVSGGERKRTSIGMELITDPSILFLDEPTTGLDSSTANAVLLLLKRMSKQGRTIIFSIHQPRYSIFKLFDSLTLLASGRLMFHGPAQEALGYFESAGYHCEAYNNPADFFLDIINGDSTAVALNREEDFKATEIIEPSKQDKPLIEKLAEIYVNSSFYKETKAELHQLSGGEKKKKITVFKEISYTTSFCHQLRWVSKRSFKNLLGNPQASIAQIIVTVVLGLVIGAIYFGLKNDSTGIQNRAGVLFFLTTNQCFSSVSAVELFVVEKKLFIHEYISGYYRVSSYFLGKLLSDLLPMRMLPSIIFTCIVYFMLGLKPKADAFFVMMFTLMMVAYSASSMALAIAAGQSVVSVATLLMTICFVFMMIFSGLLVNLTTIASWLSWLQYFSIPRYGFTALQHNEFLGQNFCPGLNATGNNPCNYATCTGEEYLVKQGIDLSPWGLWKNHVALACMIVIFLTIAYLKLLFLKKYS

CYP1A2 = conditions: following upadacitinib dosing in the cocktail drug interaction study; cited from earlier work
CYP2C9 = conditions: following upadacitinib dosing in the cocktail drug interaction study; cited from earlier work
CYP2C19 = conditions: following upadacitinib dosing in the cocktail drug interaction study; cited from earlier work
CYP2D6 = conditions: following upadacitinib dosing in the cocktail drug interaction study; cited from earlier work
P‐glycoprotein = conditions: in vitro assessments; cited from earlier work
[7] = test system: breast cancer resistance protein (BCRP); conditions: in vitro assessments; cited from earlier work
BCRP [8] = conditions: in vitro assessments, at clinically relevant concentrations; cited from earlier work
[9] = test system: organic anion transporting polypeptide (OATP) 1B1; conditions: in vitro assessments, at clinically relevant concentrations; cited from earlier work
[10] = cited from earlier work; remark: listed apart in the source
[11] = atorvastatin 10 mg + upadacitinib 30 mg once daily, period 2 day 7, N = 24
[12] = atorvastatin 10 mg alone, period 1 day 1, N = 24
[13] = atorvastatin 10 mg alone, period 1 day 1, N = 24, mean ± SD
[14] = rosuvastatin 5 mg, upadacitinib 30 mg once daily
[15] = upadacitinib 30 mg once daily at steady state
[16] = part 2, period 2 day 6, upadacitinib 30 mg once daily alone
[17] = part 2, period 2 day 7, upadacitinib 30 mg once daily + atorvastatin 10 mg single dose

CC(C)c1nc(NS(C)(=O)=O)nc(-c2ccc(F)cc2)c1/C=C/[C@@H](O)C[C@@H](O)CC(=O)O [N‐desmethyl rosuvastatin]
Inhibitory activity of HMG‐CoA reductase compared to rosuvastatin (HMG‐CoA reductase): minimal inhibitory activity

CC(C)c1c(C(=O)Nc2ccccc2)c(-c2ccccc2)c(-c2ccc(F)cc2)n1CC[C@@H](O)C[C@@H](O)CC(=O)O [atorvastatin]
Tolerability (Safety monitoring): generally well tolerated

C#C[C@]1(O)CC[C@H]2[C@@H]3CCc4cc(O)ccc4[C@H]3CC[C@@]21C [ethinylestradiol]
Effect of upadacitinib on plasma exposures [1]: lack of effect; also recorded: no effect

C#C[C@]1(O)CC[C@H]2[C@@H]3CCC4=CC(=O)CC[C@@H]4[C@H]3CC[C@@]21CC [levonorgestrel]
Effect of upadacitinib on plasma exposures [1]: lack of effect; also recorded: no effect

Cc1ncc2n1-c1ccc(Cl)cc1C(c1ccccc1F)=NC2 [midazolam]
Decrease in AUC when administered with upadacitinib relative to alone (CYP3A): 26% | Decrease in Cmax when administered with upadacitinib relative to alone (CYP3A): 26%

CC(C)c1c(C(=O)Nc2ccccc2O)c(-c2ccccc2)c(-c2ccc(F)cc2)n1CC[C@@H](O)C[C@@H](O)CC(=O)O [ortho‐hydroxyatorvastatin]
t1/2 (arithmetic mean ± standard deviation) [11]: 10.7 ± 2.76 h | t1/2 (harmonic mean ± pseudo-standard deviation) [11]: 10.0 ± 2.60 h | t1/2 (arithmetic mean ± standard deviation) [12]: 12.9 ± 5.76 h | t1/2 (harmonic mean ± pseudo-standard deviation) [12]: 11.1 ± 3.92 h | Ortho‐hydroxyatorvastatin to atorvastatin AUCinf ratio [13]: 1.39 ± 0.499 | Ortho‐hydroxyatorvastatin to atorvastatin AUCt ratio [13]: 1.33 ± 0.492 | tmax (atorvastatin 10 mg alone, period 1 day 1, N = 24, median (minimum-maximum)): 4.0 (2.0‐8.0) h | Cmax (atorvastatin 10 mg single dose + upadacitinib 30 mg once daily, period 2 day 7, N = 24, mean ± SD): 1.54 ± 0.610 ng/mL | Cmax (atorvastatin 10 mg single oral dose alone, period 1 day 1, N = 24, mean ± SD): 1.58 ± 0.716 ng/mL

CC(C)c1nc(N(C)S(C)(=O)=O)nc(-c2ccc(F)cc2)c1/C=C/[C@@H](O)C[C@@H](O)CC(=O)O [rosuvastatin]
AUC(0-inf) ([2]; human, plasma, oral, 5 mg): 22.8 ± 6.69 ng·h/mL | AUC(0-t) ([2]; human, plasma, oral, 5 mg): 17.5 ± 6.53 ng·h/mL | half-life ([2]; human, plasma, oral, 5 mg, t1/2 (arithmetic mean ± standard deviation), rosuvastatin 5 mg alone, period 1 day 1, N = 12): 1650 min | Cmax ([2]; human, plasma, po, 5 mg): 1.91 ± 0.699 ng/mL | Cmax central value ratio (90%CI) ([2]; rosuvastatin 5 mg with upadacitinib 30 mg once daily versus rosuvastatin alone): 0.77 | AUCinf lower when administered with upadacitinib relative to alone [2, 14]: 33% | Cmax lower when administered with upadacitinib relative to alone [2, 14]: 23% | Tolerability (Safety monitoring): generally well tolerated | Intrasubject variability in plasma exposures [3]: ≈ 25%

CC[C@@H]1CN(C(=O)NCC(F)(F)F)C[C@@H]1c1cnc2cnc3[nH]ccc3n12 [upadacitinib]
Effect of upadacitinib on the pharmacokinetics of rosuvastatin ([2]; upadacitinib 30 mg once daily, rosuvastatin 5 mg): no clinically relevant effect | AUC ([4]; human, plasma, oral, 30 mg): 585 ± 153 ng·h/mL | Cmax ([4]; human, plasma, oral, 30 mg): 73 ± 23.6 ng/mL | concentration at 24 h ([4]; human, plasma, oral, 30 mg): 5.17 ± 1.56 ng/mL | CL/F ([4]; part 1, period 2 day 6, upadacitinib 30 mg once daily alone): 54.6 ± 14.4 L/h | CL/F ([4]; part 1, period 2 day 7, upadacitinib 30 mg once daily + rosuvastatin 5 mg single dose): 55.9 ± 14.7 L/h | Effect of single 5‐mg dose of rosuvastatin on upadacitinib Cmax or AUC [4, 15]: no relevant effect | AUC ([5]; human, plasma, oral, 30 mg): 547 ± 112 ng·h/mL | concentration at 24 h ([5]; human, plasma, oral, 30 mg): 4.3 ± 1.74 ng/mL | CL/F [5, 16]: 57.2 ± 12.3 L/h | Cmax [5, 16]: 76.5 ± 16.1 ng/mL | CL/F [5, 17]: 58.4 ± 11.7 L/h | Cmax [5, 17]: 73.2 ± 17.1 ng/mL | Effect of single 10‐mg dose of atorvastatin on upadacitinib Cmax or AUC [5, 15]: no relevant effect | Inhibition of OATP1B in vivo (OATP1B): lack of inhibition | Inhibition of BCRP in vivo (BCRP [6]): lack of inhibition | Tolerability (Safety monitoring): generally well tolerated | Patients reporting constipation (grade 1) (Safety monitoring; during treatment with rosuvastatin and upadacitinib, N = 12): 1 patient | New safety findings (Safety monitoring; upadacitinib alone or with the statins): no new safety findings | Effect of upadacitinib on the pharmacokinetics of atorvastatin (upadacitinib 30 mg once daily, atorvastatin 10 mg): no clinically relevant effect | Effect on CYP1A2 activity (CYP1A2): No relevant effects | Effect on CYP2C9 activity (CYP2C9): No relevant effects | Effect on CYP2C19 activity (CYP2C19): No relevant effects | Effect on CYP2D6 activity (CYP2D6): No relevant effects | Substrate for P‐glycoprotein (P‐glycoprotein): is a substrate | Substrate for BCRP [7]: is a substrate | Inhibition of BCRP (BCRP [8]): not expected to inhibit | Inhibition of OATP1B1 [9]: not expected to inhibit | Time to steady state ([10]; once‐daily dosing of the extended‐release formulation): ≤ 4 days | Accumulation in plasma ([10]; repeated once‐daily dosing of the extended‐release formulation): no significant accumulation
